Among the data in article PMC11995724, “Antibiotic target discovery by integrated phenotypic and activity-based profiling of electrophilic fragments” (Cell chemical biology, 2025) are viability values, retold here.

Each structure is given as a SMILES string.

The series can be described thus: in vitro. The following applies: human, hek293t cells.
By viability is commonly meant a read-out of living cells in per cent, often relative to untreated cells. For the molecule `COc1ccc2c(c1)CCCN(C(=O)C(C)Cl)C2` (stereo not shown) [5-D17, 2-chloro-1-(7-methoxy-2,3,4,5-tetrahydro-1H-2-benzazepin-2-yl)propan-1-one], the viability at 48 h, 25 µM was 90.9%. For the molecule `C=CC(=O)N1CCC(C(=O)NCc2ccc(C(N)=O)cc2)CC1` [3-J08, N-[(4-carbamoylphenyl)methyl]-1-(prop-2-enoyl)piperidine-4-carboxamide], the viability at 48 h, 25 µM amounted to 82.2%. The figure for `C=CC(=O)N1CCC(c2nc(C3CCC3)no2)CC1` [2-O04, 1-[4-(3-cyclobutyl-1,2,4-oxadiazol-5-yl)piperidin-1-yl]prop-2-en-1-one] is 84.1%; for `CCCCNC(=O)C(C#N)=Cc1ccc(F)cc1F` [8-H14, N-butyl-2-cyano-3-(2,4-difluorophenyl)prop-2-enamide] it is 103%. As for `C=CC(=O)N1CCN(S(=O)(=O)Cc2ccon2)CC1` [1-J07, 1-{4-[(1,2-oxazol-3-yl)methanesulfonyl]piperazin-1-yl}prop-2-en-1-one], the figure is 112%; as for `Cc1nn(CC(C)C)c(Cl)c1C1CCCN1C(=O)C(C)Cl` (stereo not shown) [7-P19, 2-chloro-1-{2-[5-chloro-3-methyl-1-(2-methylpropyl)-1H-pyrazol-4-yl]pyrrolidin-1-yl}propan-1-one], 78%; as for `CC(Cl)C(=O)N(CCC#N)c1ccccc1` (stereo not shown) [6-M18, 2-chloro-N-(2-cyanoethyl)-N-phenylpropanamide], 105%.

Consider `Cc1cc(C2CCCN2C(=O)C(C)Cl)no1` (stereo not shown) [7-D19, 2-chloro-1-[2-(5-methyl-1,2-oxazol-3-yl)pyrrolidin-1-yl]propan-1-one], for which the viability at 48 h, 25 µM came to 88.5%. As to `CC(Cl)C(=O)NCC1CCCCC1` (stereo not shown) [4-I10, 2-chloro-N-(cyclohexylmethyl)propanamide], the viability at 48 h, 25 µM worked out at 90.9%. `CC(Cl)C(=O)N1CCc2ncccc2C1` (stereo not shown) [7-I19, 2-chloro-1-(5,6,7,8-tetrahydro-1,6-naphthyridin-6-yl)propan-1-one]: the viability at 48 h, 25 µM was determined as 98.1%.

For `N#CC(=Cc1ccc(OC(F)F)cc1)C(=O)Nc1nccs1` [8-F14, 2-cyano-3-[4-(difluoromethoxy)phenyl]-N-(1,3-thiazol-2-yl)prop-2-enamide], the viability at 48 h, 25 µM was found to be 113%. For the molecule `CCOc1ccccc1NC(=O)C(C#N)=Cc1c(F)cccc1F` [8-G21, 2-cyano-3-(2,6-difluorophenyl)-N-(2-ethoxyphenyl)prop-2-enamide], the viability at 48 h, 25 µM was 78.1%. The figure for `C=CC(=O)N(C)Cc1ccn(CC)n1` [1-L16, N-[(1-ethyl-1H-pyrazol-3-yl)methyl]-N-methylprop-2-enamide] is 75.2%; for `O=C(CCl)Nc1ccc2ccccc2c1` [4-B12, 2-chloro-N-(naphthalen-2-yl)acetamide] it is 0.59%; for `C=CC(=O)N1CCC(Cc2ccccc2)CC1` [2-O10, 1-(4-benzylpiperidin-1-yl)prop-2-en-1-one] it is 73%. In the case of `C=CC(=O)NCc1ncccc1-n1cccn1` [2-N19, N-{[3-(1H-pyrazol-1-yl)pyridin-2-yl]methyl}prop-2-enamide], the viability at 48 h, 25 µM is 70.3%.

In the case of `CC(C)(C)N(Cc1ccccc1)C(=O)CCl` [5-H20, N-benzyl-N-tert-butyl-2-chloroacetamide], the viability at 48 h, 25 µM was determined as 1.81%. Turning to `C=CC(=O)N1CCC(C(=O)Nc2ncc(CCO)s2)CC1` [2-A08, N-[5-(2-hydroxyethyl)-1,3-thiazol-2-yl]-1-(prop-2-enoyl)piperidine-4-carboxamide], the viability at 48 h, 25 µM turned out to be 79.1%. The figure for `N#CC(=Cc1ccc(Cl)c([N+](=O)[O-])c1)C(=O)N1CCCC1` [9-N05, 3-(4-chloro-3-nitrophenyl)-2-(pyrrolidine-1-carbonyl)prop-2-enenitrile] is 5.4%. As for `N#CC(=Cc1cn2cc(Cl)ccc2n1)C(=O)NC1CCCC1` [9-P15, 3-{6-chloroimidazo[1,2-a]pyridin-2-yl}-2-cyano-N-cyclopentylprop-2-enamide], the figure is 120%; as for `O=C(CCl)Nc1ccc(SC(F)F)cc1` [4-B10, 2-chloro-N-{4-[(difluoromethyl)sulfanyl]phenyl}acetamide], -0.0257%; as for `COc1ccc(NC(=O)C(C#N)=Cc2c(Cl)nc3ccccn23)cc1` [9-G09, 3-{2-chloroimidazo[1,2-a]pyridin-3-yl}-2-cyano-N-(4-methoxyphenyl)prop-2-enamide], 121%. The figure for `C=CC(=O)N1CCC(C(=O)NCc2ccccc2-n2cccn2)CC1` [3-N03, 1-(prop-2-enoyl)-N-{[2-(1H-pyrazol-1-yl)phenyl]methyl}piperidine-4-carboxamide] is 68%; for `C=CC(=O)N1CC2(CCCC2)CC1CO` (stereo not shown) [2-I19, 1-[3-(hydroxymethyl)-2-azaspiro[4.4]nonan-2-yl]prop-2-en-1-one] it is 82.4%. With `C#CCN1C(=O)C=CC1=O` [10-F09, 1-(prop-2-yn-1-yl)-2,5-dihydro-1H-pyrrole-2,5-dione], the viability at 48 h, 25 µM came to 98.4%.

With `C=CC(=O)NCCC(=O)N1CCN(c2nc(C)cs2)C(C)C1` (stereo not shown) [2-F06, N-{3-[3-methyl-4-(4-methyl-1,3-thiazol-2-yl)piperazin-1-yl]-3-oxopropyl}prop-2-enamide], the viability at 48 h, 25 µM was 92.9%.

In the case of `C=CC(=O)NCc1ccc(N2CC(C)CS2(=O)=O)cc1` (stereo not shown) [3-J19, N-{[4-(4-methyl-1,1-dioxo-1lambda6,2-thiazolidin-2-yl)phenyl]methyl}prop-2-enamide], the viability at 48 h, 25 µM was 95.4%. As for `O=C(NC1CCCN(C(=O)CCl)C1)c1cc2ccccc2o1` (stereo not shown) [5-D05, N-[1-(2-chloroacetyl)piperidin-3-yl]-1-benzofuran-2-carboxamide], the figure is 0.852%; as for `N#CC(C(=O)CCl)=C1Nc2ccccc2S1` [10-J04, 4-chloro-2-(2,3-dihydro-1,3-benzothiazol-2-ylidene)-3-oxobutanenitrile], 0.855%.

With `Cc1nn(C)c(C)c1C=C(C#N)C(=O)Nc1cccc(Cl)c1C` [9-M20, N-(3-chloro-2-methylphenyl)-2-cyano-3-(1,3,5-trimethyl-1H-pyrazol-4-yl)prop-2-enamide], the viability at 48 h, 25 µM amounted to 111%. The figure for `CC(Cl)C(=O)c1ccc(F)c(F)c1` (stereo not shown) [10-A17, 2-chloro-1-(3,4-difluorophenyl)propan-1-one] is 66.4%; for `C=CC(=O)N1CCC(n2cc(C(N)=O)nn2)C1` (stereo not shown) [1-C18, 1-[1-(prop-2-enoyl)pyrrolidin-3-yl]-1H-1,2,3-triazole-4-carboxamide] it is 79.6%. Take `Cc1c(C=C(C#N)C(=O)Nc2ccccn2)cc(C#N)n1C` [8-G06, 2-cyano-3-(5-cyano-1,2-dimethyl-1H-pyrrol-3-yl)-N-(pyridin-2-yl)prop-2-enamide]: the viability at 48 h, 25 µM is 94.1%.

Consider `C=CC(=O)Nc1c2c(cc3c1CCC3)CCC2` [1-C11, N-(1,2,3,5,6,7-hexahydro-s-indacen-4-yl)prop-2-enamide], for which the viability at 48 h, 25 µM stood at 45.8%. Turning to `COc1ccc(-c2nn(-c3ccccc3)cc2C=C(C#N)C(N)=O)cc1` [8-L16, 2-cyano-3-[3-(4-methoxyphenyl)-1-phenyl-1H-pyrazol-4-yl]prop-2-enamide], the viability at 48 h, 25 µM amounted to 109%. The figure for `COC1(CNC(=O)CCl)CCC(C(F)F)CC1` (stereo not shown) [6-D21, 2-chloro-N-{[4-(difluoromethyl)-1-methoxycyclohexyl]methyl}acetamide] is 52.3%. The figure for `COc1ccc(-c2csc(NC(=O)CCl)n2)cc1` [4-N06, 2-chloro-N-[4-(4-methoxyphenyl)-1,3-thiazol-2-yl]acetamide] is 0.915%; for `CC(NC(=O)C(C#N)=Cc1ccccc1)C12CC3CC(CC(C3)C1)C2` (stereo not shown) [8-N20, N-[1-(adamantan-1-yl)ethyl]-2-cyano-3-phenylprop-2-enamide] it is 13.9%. Take `C=CC(=O)Nc1ccnn1Cc1cccc(Cl)c1` [1-N14, N-{1-[(3-chlorophenyl)methyl]-1H-pyrazol-5-yl}prop-2-enamide]: the viability at 48 h, 25 µM was determined as 1.05%.

With `C=CC(=O)N1CCN(S(C)(=O)=O)[C@H](C)C1` [1-G15, 1-[(3R)-4-methanesulfonyl-3-methylpiperazin-1-yl]prop-2-en-1-one], the viability at 48 h, 25 µM is 101%. Consider `O=C(CCl)N1N=C(c2cccs2)CC1c1cccc(O)c1` (stereo not shown) [6-L04, 2-chloro-1-[5-(3-hydroxyphenyl)-3-(thiophen-2-yl)-4,5-dihydro-1H-pyrazol-1-yl]ethan-1-one], for which the viability at 48 h, 25 µM turned out to be 0.561%. For `CCn1nc(C)c(C(=O)CCl)n1` [10-P08, 2-chloro-1-(2-ethyl-5-methyl-2H-1,2,3-triazol-4-yl)ethan-1-one], the viability at 48 h, 25 µM turned out to be 27.2%.

Consider `N#CC(=Cc1ccc(-c2ccc(Cl)cc2)o1)C(=O)Nc1ccccc1` [8-O03, 3-[5-(4-chlorophenyl)furan-2-yl]-2-cyano-N-phenylprop-2-enamide], for which the viability at 48 h, 25 µM was found to be 58.3%. The figure for `COc1ccc(C(NC(=O)CCl)C(C)C)cc1` (stereo not shown) [4-A13, 2-chloro-N-[1-(4-methoxyphenyl)-2-methylpropyl]acetamide] is 11.2%.

For the molecule `O=C(CCl)NCC(F)(F)c1cccnc1` [6-C21, 2-chloro-N-[2,2-difluoro-2-(pyridin-3-yl)ethyl]acetamide], the viability at 48 h, 25 µM is 104%. As for `C=CC(=O)N1CCC=C(c2cn(C(C)C)nn2)CC1` [3-D19, 1-{4-[1-(propan-2-yl)-1H-1,2,3-triazol-4-yl]-2,3,6,7-tetrahydro-1H-azepin-1-yl}prop-2-en-1-one], the figure is 78.1%; as for `C=CC(=O)N1CCC(C(=O)N2CCCC2COC)CC1` (stereo not shown) [2-E12, 1-{4-[2-(methoxymethyl)pyrrolidine-1-carbonyl]piperidin-1-yl}prop-2-en-1-one], 116%. The figure for `Cc1cc(Cl)ccc1CN1CCN(C(=O)C(C)Cl)CC1` (stereo not shown) [5-B13, 2-chloro-1-{4-[(4-chloro-2-methylphenyl)methyl]piperazin-1-yl}propan-1-one] is 94.8%; for `O=C(CCl)Nc1ccc(Oc2ccccc2)cc1` [4-J09, 2-chloro-N-(4-phenoxyphenyl)acetamide] it is -0.178%.
